Measurements as given in PubChem BioAssay (NCI).
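Test compounds were applied to cells in 96-well plates for 48 hours at 5 doses. Abbreviation: GI50, concentration required for 50% inhibition of growth. TGI marks complete inhibition of growth.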

What was measured:
Experiment in all cases: inhibition of tumour cell growth, NCI panel, 48 h
T-47D breast = tested on: T-47D breast
NCI/ADR-RES ovarian = tested on: NCI/ADR-RES ovarian
BT-549 breast = tested on: BT-549 breast
UACC-62 melanoma = tested on: UACC-62 melanoma
MALME-3M melanoma = tested on: MALME-3M melanoma
ACHN renal = tested on: ACHN renal
COLO 205 colon = tested on: COLO 205 colon
SK-MEL-5 melanoma = tested on: SK-MEL-5 melanoma
DU-145 prostate = tested on: DU-145 prostate
RXF 393 renal = tested on: RXF 393 renal
HCC-2998 colon = tested on: HCC-2998 colon
CAKI-1 renal = tested on: CAKI-1 renal
NCI-H522 lung = tested on: NCI-H522 lung
PC-3 prostate = tested on: PC-3 prostate
HCT-15 colon = tested on: HCT-15 colon
OVCAR-4 ovarian = tested on: OVCAR-4 ovarian
786-0 renal = tested on: 786-0 renal
IGROV1 ovarian = tested on: IGROV1 ovarian
A549 NSCLC = tested on: A549 NSCLC
EKVX NSCLC = tested on: EKVX NSCLC
A498 renal = tested on: A498 renal
HOP-92 NSCLC = tested on: HOP-92 NSCLC
HS 578T breast = tested on: HS 578T breast
NCI-H23 lung = tested on: NCI-H23 lung
SK-MEL-2 melanoma = tested on: SK-MEL-2 melanoma
RPMI-8226 leukemia = tested on: RPMI-8226 leukemia
MDA-MB-231 breast = tested on: MDA-MB-231 breast
SK-OV-3 ovarian = tested on: SK-OV-3 ovarian
KM12 colon = tested on: KM12 colon
NCI-H460 lung = tested on: NCI-H460 lung
MOLT-4 leukemia = tested on: MOLT-4 leukemia
MDA-MB-435 = tested on: MDA-MB-435
SF-268 CNS = tested on: SF-268 CNS
K-562 leukemia = tested on: K-562 leukemia
SK-MEL-28 melanoma = tested on: SK-MEL-28 melanoma
TK-10 renal = tested on: TK-10 renal
SR leukemia = tested on: SR leukemia
HCT-116 colon = tested on: HCT-116 colon
LOX IMVI melanoma = tested on: LOX IMVI melanoma
UACC-257 melanoma = tested on: UACC-257 melanoma
OVCAR-8 ovarian = tested on: OVCAR-8 ovarian
NCI-H226 lung = tested on: NCI-H226 lung
HOP-62 NSCLC = tested on: HOP-62 NSCLC
M14 melanoma = tested on: M14 melanoma
HT29 colon = tested on: HT29 colon
SF-295 CNS = tested on: SF-295 CNS
SNB-19 CNS = tested on: SNB-19 CNS
CCRF-CEM leukemia = tested on: CCRF-CEM leukemia
SW-620 colon = tested on: SW-620 colon
SN12C renal = tested on: SN12C renal
HL-60(TB) leukemia = tested on: HL-60(TB) leukemia
MCF7 breast = tested on: MCF7 breast
OVCAR-5 ovarian = tested on: OVCAR-5 ovarian
SF-539 CNS = tested on: SF-539 CNS
SNB-75 CNS = tested on: SNB-75 CNS
UO-31 renal = tested on: UO-31 renal
U251 CNS = tested on: U251 CNS

SMILES: COc1cc(OC)c(/C=C/S(=O)(=O)Cc2ccc(OC)c(NC(=O)CCC(=O)NO)c2)c(OC)c1
- GI50 (T-47D breast): 30.6 µM
- TGI (T-47D breast): > 100 µM
- GI50 (NCI/ADR-RES ovarian): < 15.8 nM
- TGI (NCI/ADR-RES ovarian): > 100 µM
- GI50 (BT-549 breast): 24.4 nM
- TGI (BT-549 breast): 72.4 nM
- GI50 (UACC-62 melanoma): 19.8 nM
- TGI (UACC-62 melanoma): > 100 µM
- GI50 (MALME-3M melanoma): > 100 µM
- TGI (MALME-3M melanoma): > 100 µM
- GI50 (ACHN renal): 33.2 nM
- TGI (ACHN renal): > 100 µM
- GI50 (COLO 205 colon): 32.9 nM
- GI50 (SK-MEL-5 melanoma): 29.9 nM
- TGI (SK-MEL-5 melanoma): 256 nM
- GI50 (DU-145 prostate): 45.1 nM
- TGI (DU-145 prostate): > 100 µM
- GI50 (RXF 393 renal): 21.4 nM
- TGI (RXF 393 renal): > 100 µM
- GI50 (HCC-2998 colon): 34.5 nM
- TGI (HCC-2998 colon): > 100 µM
- GI50 (CAKI-1 renal): < 15.9 nM
- TGI (CAKI-1 renal): > 100 µM
- GI50 (NCI-H522 lung): < 12.6 nM
- GI50 (PC-3 prostate): 31.1 nM
- TGI (PC-3 prostate): > 100 µM
- GI50 (HCT-15 colon): 22.5 nM
- TGI (HCT-15 colon): > 100 µM
- TGI (OVCAR-4 ovarian): > 100 µM
- GI50 (786-0 renal): 43.6 nM
- TGI (786-0 renal): > 100 µM
- GI50 (IGROV1 ovarian): 38.6 nM
- TGI (IGROV1 ovarian): > 100 µM
- GI50 (A549 NSCLC): 39.7 nM
- TGI (A549 NSCLC): > 100 µM
- GI50 (EKVX NSCLC): 57.3 nM
- TGI (EKVX NSCLC): > 100 µM
- GI50 (A498 renal): < 13.4 nM
- TGI (A498 renal): 79.4 nM
- GI50 (HOP-92 NSCLC): 251 nM
- TGI (HOP-92 NSCLC): > 100 µM
- GI50 (HS 578T breast): 23 nM
- TGI (HS 578T breast): > 100 µM
- GI50 (NCI-H23 lung): 49.9 nM
- TGI (NCI-H23 lung): > 100 µM
- TGI (SK-MEL-2 melanoma): > 37.2 µM
- GI50 (RPMI-8226 leukemia): 45.2 nM
- TGI (RPMI-8226 leukemia): > 100 µM
- GI50 (MDA-MB-231 breast): 47.8 nM
- TGI (MDA-MB-231 breast): > 100 µM
- GI50 (SK-OV-3 ovarian): 1170 nM
- TGI (SK-OV-3 ovarian): > 100 µM
- GI50 (KM12 colon): 30.7 nM
- TGI (KM12 colon): > 100 µM
- GI50 (NCI-H460 lung): 34 nM
- TGI (NCI-H460 lung): > 100 µM
- GI50 (MOLT-4 leukemia): 46.7 nM
- TGI (MOLT-4 leukemia): > 100 µM
- TGI (MDA-MB-435): 31.5 nM
- GI50 (SF-268 CNS): 102 nM
- TGI (SF-268 CNS): > 100 µM
- GI50 (K-562 leukemia): < 15.4 nM
- TGI (K-562 leukemia): > 100 µM
- GI50 (SK-MEL-28 melanoma): > 84.5 µM
- TGI (SK-MEL-28 melanoma): > 100 µM
- GI50 (TK-10 renal): > 100 µM
- TGI (TK-10 renal): > 100 µM
- GI50 (SR leukemia): 20.3 nM
- TGI (SR leukemia): > 100 µM
- GI50 (HCT-116 colon): 27.8 nM
- TGI (HCT-116 colon): > 100 µM
- GI50 (LOX IMVI melanoma): 29.6 nM
- TGI (LOX IMVI melanoma): > 100 µM
- GI50 (UACC-257 melanoma): > 100 µM
- TGI (UACC-257 melanoma): > 100 µM
- GI50 (OVCAR-8 ovarian): 41.2 nM
- TGI (OVCAR-8 ovarian): > 100 µM
- GI50 (NCI-H226 lung): 99.5 nM
- TGI (NCI-H226 lung): > 100 µM
- GI50 (HOP-62 NSCLC): 67.5 nM
- TGI (HOP-62 NSCLC): > 100 µM
- GI50 (M14 melanoma): 18.8 nM
- TGI (M14 melanoma): > 100 µM
- GI50 (HT29 colon): 38.7 nM
- TGI (HT29 colon): > 100 µM
- GI50 (SF-295 CNS): 14.4 nM
- TGI (SF-295 CNS): > 100 µM
- GI50 (SNB-19 CNS): 46.3 nM
- TGI (SNB-19 CNS): > 100 µM
- GI50 (CCRF-CEM leukemia): 35.3 nM
- TGI (CCRF-CEM leukemia): > 100 µM
- GI50 (SW-620 colon): 37.7 nM
- TGI (SW-620 colon): > 100 µM
- GI50 (SN12C renal): 61.8 nM
- TGI (SN12C renal): > 100 µM
- GI50 (HL-60(TB) leukemia): 26.2 nM
- TGI (HL-60(TB) leukemia): 88 nM
- GI50 (MCF7 breast): 25 nM
- TGI (MCF7 breast): > 100 µM
- GI50 (OVCAR-5 ovarian): 55 nM
- TGI (OVCAR-5 ovarian): > 100 µM
- GI50 (SF-539 CNS): 26.1 nM
- TGI (SF-539 CNS): 432 nM
- GI50 (SNB-75 CNS): 18.4 nM
- TGI (SNB-75 CNS): 3.68 µM
- GI50 (UO-31 renal): 107 nM
- TGI (UO-31 renal): > 100 µM
- GI50 (U251 CNS): 38.7 nM
- TGI (U251 CNS): > 100 µM
